Source: US20160282364A1, “ASSAY FOR INSULIN-DEGRADING ENZYME (IDE) INHIBITORS” (PRESIDENT AND FELLOWS OF HARVARD COLLEGE, priority 2013, published 2016)
Entries after “also recorded” stand apart in the source; their conditions may differ.

Assays:
Wild-type mice = assay: Gastric emptying measurements; format: in vivo, mouse; details: 30 minutes post-gavage, vs vehicle and bisepi-6bK controls
Protocol: Trunk blood was obtained for plasma hormone measurements using the Multiplexed Mouse Metabolic Hormone panel (Milliplex, EMD Millipore) on a Luminex FlexMap 3D instrument. Gastric emptying was measured by dissection of stomachs 30 min after an oral glucose bolus (3.0 g/kg, 10 mL/kg) in sterile saline containing 0.1 mg/mL phenol red.
Gastric emptying measurements. Mice were fasted 14 h (8 pm to 10 am). Inhibitor or vehicle alone was injected i.p. as previously described, followed 30 min later by an oral glucose bolus (3.0 g/kg, 10 mL/kg) in sterile saline containing 0.1 mg/mL phenol red. At 30 min, the stomach was promptly dissected after CO2-euthanasia and stored on ice. The stomach contents were extracted into 2.5 mL EtOH (95%) by homogenization for 1 min using a probe sonicator. Tissue debris were decanted by centrifugation at 4000 g, followed by clearing at 15000 g for 15 min. The supernatant (1 mL) was mixed with 0.5 mL of aqueous NaOH (20 mM), and incubated at −20° C. for 1 h. The solution was centrifuged at 15,000 g for 15 min, and absorbance was determined at 565 nm. The spectrophotometer was blanked with the stomach contents of a mouse treated with colorless glucose solution. The absorbance was adjusted to the amount of glucose solution dosed to each mouse. Values are reported as mean±S.E.M relative to the original phenol red glucose solution. […]

mice = assay: Blood pressure and heart rate in mouse CGRP model; format: in vivo
Protocol: CGRP is a potent microvascular vasodilator widely expressed in the central and peripheral nervous systems of vertebrates. Administration of CGRP resulting in supraphysiological plasma levels of CGRP results in temporary vasodilation, hypotension, and an increased heart rate.
Nine mice received 250 ng CGRP intravenously (t=0). […] The other five received a control injection of vehicle only.
In addition,the lower panel of FIG. 19 demonstates that the increase in heart rate observed initially after CGRP administration is similar in both groups, but that the heart rate remains […] and the heart change rate is decreased in 6bK-administered mice as compared to controls.

IDE (R&D) = IDE (R&D) (Homo sapiens, UniProt P14735); assay: Homogeneous time-resolved fluorescence (HTRF) insulin degradation assay; format: biochemical; set-up: recombinant human IDE42-1019 (R&D Systems); purchased R&D
IDE (R&D), sequence (P14735 42-1019): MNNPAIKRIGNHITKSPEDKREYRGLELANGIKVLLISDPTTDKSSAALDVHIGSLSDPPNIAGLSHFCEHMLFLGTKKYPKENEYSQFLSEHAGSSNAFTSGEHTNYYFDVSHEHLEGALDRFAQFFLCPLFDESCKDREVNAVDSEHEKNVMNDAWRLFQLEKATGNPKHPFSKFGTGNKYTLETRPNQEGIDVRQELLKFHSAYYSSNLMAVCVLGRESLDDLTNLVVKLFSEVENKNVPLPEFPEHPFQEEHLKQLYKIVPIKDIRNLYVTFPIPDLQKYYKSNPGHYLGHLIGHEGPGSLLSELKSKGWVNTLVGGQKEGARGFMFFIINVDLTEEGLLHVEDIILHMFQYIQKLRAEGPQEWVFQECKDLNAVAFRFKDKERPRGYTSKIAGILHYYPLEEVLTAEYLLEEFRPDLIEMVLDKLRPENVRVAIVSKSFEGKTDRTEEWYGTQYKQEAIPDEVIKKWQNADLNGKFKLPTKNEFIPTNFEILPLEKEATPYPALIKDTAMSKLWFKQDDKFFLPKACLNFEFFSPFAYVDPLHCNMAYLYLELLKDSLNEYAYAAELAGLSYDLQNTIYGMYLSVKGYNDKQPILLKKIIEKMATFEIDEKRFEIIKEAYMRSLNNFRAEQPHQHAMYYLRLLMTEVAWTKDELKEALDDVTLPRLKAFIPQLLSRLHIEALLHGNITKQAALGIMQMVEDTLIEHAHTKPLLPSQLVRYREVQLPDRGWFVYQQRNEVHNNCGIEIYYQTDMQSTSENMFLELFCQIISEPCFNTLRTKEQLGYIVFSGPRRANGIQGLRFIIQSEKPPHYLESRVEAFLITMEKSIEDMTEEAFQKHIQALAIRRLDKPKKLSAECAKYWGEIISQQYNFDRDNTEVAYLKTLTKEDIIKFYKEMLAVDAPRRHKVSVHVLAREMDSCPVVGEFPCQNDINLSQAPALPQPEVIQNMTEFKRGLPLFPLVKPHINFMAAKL
Protocol: All data points and error bars represent mean±SEM. Significance tests were performed using two-tail Student's t-test, and significance levels shown in the figures are p<0.05 (*) or p<0.01 (**) versus the vehicle-only control group. The in vitro selection of the DNA-templated macrocycle libraryl^16,17 used 20 μg His6-tagged mouse IDE immobilized on cobalt magnetic beads (Dynabeads, Invitrogen). IDE proteolytic activity was assayed with fluorogenic peptide Mca-[…](Dnp)-OH (R&D). IDE inhibition was confirmed using an anti-insulin antibody time-resolved FRET assay (Cysbio), and using an LCMS assay for CGRP cleavage fragments CGRP1-17 and CGRP18-37 in plasma^18. […] IDE degradation assays for insulin and calcitonin-gene related peptide (CGRP). […] Fluorescence was measured using a Tecan Safire 2 plate reader (excitation=320 nm, emission=665 and 620 nm, lag time=60 μs) according the assay manufacturer's recommendations. Degradation of CGRP by endogenous IDE in mouse plasma was analyzed by LC-MS for the formation of CGRP1-17 and CGRP18-37 as previously reported^6.

inhibition of IDE proteolytic activity, insulin immunoassay (IDE (R&D))	Structure (SMILES)	slower gastric emptying of a labeled glucose solution (Wild-type mice)	return of blood pressure to baseline / duration of CGRP-induced hypotension (mice; 1 mg 6bK i.p. 30 min before 250 ng CGRP i.v.)	baseline blood pressure (mice; mice, 1 mg 6bK i.p., vs vehicle)	baseline heart rate (mice; mice, 1 mg 6bK, vs control)
–	NCCCC[C@@H]1NC(=O)/C=C/C(=O)N[C@H](C(N)=O)CCCCNC(=O)[C@@H](Cc2ccc(C(=O)c3ccccc3)cc2)NC(=O)[C@H](CC2CCCCC2)NC1=O [Compound 6bK]	2 fold	slower kinetics; also recorded: increases the duration	reduced; also recorded: lowered	reduced
confirmed	NC(=O)CCC1NC(=O)C=CC(=O)NC(C(N)=O)CCCCNC(=O)C(Cc2ccc(C(=O)c3ccccc3)cc2)NC(=O)C(CC2CCCCC2)NC1=O (centres unmarked) [Compound 6b]	–	–	–	–
